Reference: ChEMBL document CHEMBL5108055, “Dual A1/A3 Adenosine Receptor Antagonists: Binding Kinetics and Structure-Activity Relationship Studies Using Mutagenesis and Alchemical Binding Free Energy Calculations” (J Med Chem, 2022)

Columns and labels:
Adenosine receptor A1 [1] = target: T1, Adenosine receptor A1 (Homo sapiens, UniProt P30542); experiment: Antagonist activity at wild type A1R (unknown origin) expressed in CHO-K1 cells assessed as inhibition of NECA reduced forskolin stimulated cAMP accumulation incubated for 30 mins; type: functional, cell-based
T1 sequence (P30542 whole entry): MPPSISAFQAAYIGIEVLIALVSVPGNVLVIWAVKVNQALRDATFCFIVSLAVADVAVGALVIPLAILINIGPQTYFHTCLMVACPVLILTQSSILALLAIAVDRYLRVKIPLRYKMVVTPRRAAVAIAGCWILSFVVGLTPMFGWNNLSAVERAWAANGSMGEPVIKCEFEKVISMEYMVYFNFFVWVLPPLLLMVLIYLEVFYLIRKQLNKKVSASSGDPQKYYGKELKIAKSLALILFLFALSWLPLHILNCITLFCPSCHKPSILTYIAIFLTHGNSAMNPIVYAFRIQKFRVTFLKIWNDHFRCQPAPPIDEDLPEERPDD

Adenosine receptor A1 [2] = target: T1, Adenosine receptor A1; experiment: Binding affinity to wild type A1R (unknown origin) expressed in CHO-K1 cells assessed as equilibrium binding affinity constant by nanoBRET assay; type: cell-based
Adenosine receptor A1 [3] = target: T1, Adenosine receptor A1; experiment: Binding affinity to Nluc-A1R (unknown origin) expressed in HEK293 cells by nanoBRET assay; type: cell-based
Adenosine receptor A3 [4] = target: T2, Adenosine receptor A3 (Homo sapiens, UniProt P0DMS8); experiment: Antagonist activity at wild type A3R (unknown origin) expressed in Flp-In-CHO cells assessed as inhibition of NECA reduced forskolin stimulated cAMP accumulation incubated for 30 mins; type: functional, cell-based
T2 sequence (P0DMS8 whole entry): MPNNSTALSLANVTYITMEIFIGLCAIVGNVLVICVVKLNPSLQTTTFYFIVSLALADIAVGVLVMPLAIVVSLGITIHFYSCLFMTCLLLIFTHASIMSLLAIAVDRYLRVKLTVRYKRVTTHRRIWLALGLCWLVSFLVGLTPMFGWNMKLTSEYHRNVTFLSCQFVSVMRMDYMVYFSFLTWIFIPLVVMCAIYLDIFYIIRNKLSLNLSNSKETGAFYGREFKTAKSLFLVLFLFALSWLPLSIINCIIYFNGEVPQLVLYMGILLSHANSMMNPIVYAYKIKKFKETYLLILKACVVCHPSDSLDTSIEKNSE

Adenosine receptor A3 [5] = target: T2, Adenosine receptor A3; experiment: Binding affinity to wild type A3R (unknown origin) expressed in Flp-In-CHO cells assessed as dissociation constant by Schild analysis; type: cell-based
Adenosine receptor A3 [6] = target: T2, Adenosine receptor A3; experiment: Binding affinity to wild type A3R (unknown origin) expressed in CHO-K1 cells assessed as equilibrium binding affinity constant by nanoBRET assay; type: cell-based, Flp-In-CHO
Adenosine receptor A3 [7] = target: T2, Adenosine receptor A3; experiment: Binding affinity to Nluc-A3R (unknown origin) expressed in HEK293 cells by nanoBRET assay; type: cell-based
[8] = target: T3, Adenosine receptor A3 (Homo sapiens) (UniProt P0DMS8); experiment: Binding affinity to human adenosine A3R expressed in CHO cells membrane assessed as binding constant (kon); type: cell membranes; conditions: filed as antagonist
T3 sequence (whole entry): T2 sequence (P0DMS8 whole entry)

[9] = target: T3, Adenosine receptor A3 (Homo sapiens); experiment: Binding affinity to human adenosine A3R expressed in CHO cells membrane assessed as dissociation constant (koff); type: cell membranes; conditions: filed as antagonist
[10] = target: T3, Adenosine receptor A3 (Homo sapiens); experiment: Binding affinity to human adenosine A3R expressed in CHO cells membrane assessed as residence time; type: cell membranes; conditions: filed as antagonist
Adenosine receptor A3 [11] = target: T2, Adenosine receptor A3; experiment: Binding affinity to human adenosine A3R expressed in CHO cells membrane; type: cell membranes
[12] = target: T4, Adenosine receptor A1 (Homo sapiens) (UniProt P30542); experiment: Displacement of [3H]-DPCPX from human adenosine A1R expressed in CHO cells membrane assessed as association constant (kon) incubated for 45 mins; type: cell membranes; conditions: filed as antagonist
T4 sequence (whole entry): T1 sequence (P30542 whole entry)

[13] = target: T4, Adenosine receptor A1 (Homo sapiens); experiment: Displacement of [3H]-DPCPX from human adenosine A1R expressed in CHO cells membrane assessed as dissociation constant (koff) preincubated for 1 hr followed by compound addition and measured after 1 hr; type: cell membranes; conditions: filed as antagonist
Adenosine receptor A1 [14] = target: T1, Adenosine receptor A1; experiment: Displacement of [3H]-DPCPX from human adenosine A1R expressed in CHO cells membrane incubated for 1 hr; type: cell membranes
[15] = target: T4, Adenosine receptor A1 (Homo sapiens); experiment: Displacement of [3H]-DPCPX from human adenosine A1R expressed in CHO cells membrane assessed as residence time; type: cell membranes; conditions: filed as antagonist
Adenosine receptor A1 [16] = target: Adenosine receptor A1 (Homo sapiens, UniProt P30542, E172A); experiment: Binding affinity to A1R E172 5.30A mutant (unknown origin) by saturation NanoBRET binding assay
Sequence of Adenosine receptor A1 (Homo sapiens, UniProt P30542, E172A) (P30542 whole entry E172A): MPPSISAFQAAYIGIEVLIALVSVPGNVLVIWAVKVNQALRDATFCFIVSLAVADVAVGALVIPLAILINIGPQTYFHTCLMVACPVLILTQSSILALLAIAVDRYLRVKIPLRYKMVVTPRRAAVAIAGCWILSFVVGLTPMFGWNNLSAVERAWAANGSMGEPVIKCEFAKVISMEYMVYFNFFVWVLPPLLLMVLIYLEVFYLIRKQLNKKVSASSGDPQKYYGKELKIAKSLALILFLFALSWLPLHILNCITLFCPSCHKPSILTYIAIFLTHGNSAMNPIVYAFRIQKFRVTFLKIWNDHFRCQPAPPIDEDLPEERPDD

Adenosine receptor A1 [17] = target: Adenosine receptor A1 (Homo sapiens, UniProt P30542, H251A); experiment: Binding affinity to A1R H251 6.52A mutant (unknown origin) by saturation NanoBRET binding assay
Sequence of Adenosine receptor A1 (Homo sapiens, UniProt P30542, H251A) (P30542 whole entry H251A): as the sequence (P30542 whole entry E172A) above, with A172E, H251A counted along it

Adenosine receptor A1 [18] = target: Adenosine receptor A1 (Homo sapiens, UniProt P30542, S267A); experiment: Binding affinity to A1R S267 7.32A mutant (unknown origin) in by saturation NanoBRET binding assay
Sequence of Adenosine receptor A1 (Homo sapiens, UniProt P30542, S267A) (P30542 whole entry S267A): as the sequence (P30542 whole entry E172A) above, with A172E, S267A counted along it

[19] = Binding affinity to A1R Y271 7.36A mutant (unknown origin) by saturation NanoBRET binding assay; parameters: species or system Homo sapiens
Adenosine receptor A1 [20] = target: Adenosine receptor A1 (Homo sapiens, UniProt P30542, L250A)
Sequence of Adenosine receptor A1 (Homo sapiens, UniProt P30542, L250A) (P30542 whole entry L250A): as the sequence (P30542 whole entry E172A) above, with A172E, L250A counted along it
Description: Binding affinity to A1R L250 6.51A mutant (unknown origin) by saturation NanoBRET binding assay

Adenosine receptor A1 [21] = target: T1, Adenosine receptor A1; experiment: Binding affinity to wild type A1R (unknown origin) by saturation NanoBRET binding assay
[22] = target: T3, Adenosine receptor A3 (Homo sapiens); experiment: Binding affinity to N-terminal Nano-luc tagged human adenosine A3R expressed in HEK293 cells membrane assessed as association constant (kon); type: cell membranes; conditions: filed as antagonist
[23] = target: T3, Adenosine receptor A3 (Homo sapiens); experiment: Binding affinity to N-terminal Nano-luc tagged human adenosine A3R expressed in HEK293 cells membrane assessed as dissociation constant (koff); type: cell membranes; conditions: filed as antagonist
[24] = target: T3, Adenosine receptor A3 (Homo sapiens); experiment: Binding affinity to N-terminal Nano-luc tagged human adenosine A3R expressed in HEK293 cells membrane assessed as residence time; type: cell membranes; conditions: filed as antagonist
Adenosine receptor A3 [25] = target: T2, Adenosine receptor A3; experiment: Binding affinity to N-terminal Nano-luc tagged human adenosine A3R expressed in HEK293 cells membrane; type: cell membranes
Adenosine receptor A1 [26] = target: T1, Adenosine receptor A1; experiment: Binding affinity to human adenosine A1R expressed in CHO cells membrane; type: cell membranes

Cn1nc(NC(=O)CNc2ccccc2)c2cc(Nc3ccccc3)ncc21
IC50 (Adenosine receptor A1 [1]): 2.63 nM
Ki (Adenosine receptor A1 [2]): 295 nM
Kd (Adenosine receptor A1 [3]): 398 nM

COc1cc(Nc2nc(CN)cc3c(-c4ccccc4)n[nH]c23)cc(OC)c1OC
IC50 (Adenosine receptor A3 [4]): 4.9 nM
Kd (Adenosine receptor A3 [5]): 257 nM
Ki (Adenosine receptor A3 [6]): 132 nM
IC50 (Adenosine receptor A1 [1]): 22.9 nM
Ki (Adenosine receptor A1 [2]): 22.9 nM
Kd (Adenosine receptor A3 [7]): 257 nM
Kd (Adenosine receptor A1 [3]): 40.7 nM

CC[C@@H]1CN2C(=O)N(C)C3N=C(c4ccccc4)NC3C2=N1 (some centres undefined)
K [8]: 2.35 10^8/M/min
K [9]: 0.208 min⁻¹
TIME [10]: 0.08 h
Kd (Adenosine receptor A3 [11]): 0.46 nM

N#Cc1c(N)nc(SCc2ncc[nH]2)c(C#N)c1-c1ccc(O)cc1
K [12]: 2 10^8/M/min
K [13]: 0.92 min⁻¹
Kd (Adenosine receptor A1 [14]): 4.6 nM
TIME [15]: 0.0183 h

CCCn1c(=O)c2[nH]c(-c3ccc(OCC(=O)NCCNC(=O)CCNC(=O)CCCCNC(=O)CCCCCNC(=O)COc4ccc(/C=C/C5=[N+]6C(=Cc7ccc(-c8cccs8)n7[B-]6(F)F)C=C5)cc4)cc3)nc2n(CCC)c1=O
Kd (Adenosine receptor A1 [16]; read-out: Kd): 116 nM
Kd (Adenosine receptor A1 [17]; read-out: Kd): 145 nM
Kd (Adenosine receptor A1 [18]; read-out: Kd): 71 nM
Kd [19]: 71.1 nM
Kd (Adenosine receptor A1 [20]): 158 nM

N#Cc1cc2c(-c3ccccc3)n[nH]c2c(Nc2ccccc2)n1
IC50 (Adenosine receptor A3 [4]): 60.3 nM
Kd (Adenosine receptor A3 [5]): 17 nM
Ki (Adenosine receptor A3 [6]): 43.7 nM
IC50 (Adenosine receptor A1 [1]): 13.5 nM
Ki (Adenosine receptor A1 [2]): 214 nM
Kd (Adenosine receptor A3 [7]): 26.3 nM
Kd (Adenosine receptor A1 [3]): 61.7 nM

CCNC(=O)[C@H]1O[C@@H](n2cnc3c(N)ncnc32)[C@H](O)[C@@H]1O [NECA]
pKd [19]: 5.45

COc1cc(Nc2nc(Cl)cc3c(-c4ccccc4)n[nH]c23)cc(OC)c1OC
IC50 (Adenosine receptor A3 [4]): 12.3 nM
Kd (Adenosine receptor A3 [5]): 89.1 nM
Ki (Adenosine receptor A3 [6]): 55 nM
Kd (Adenosine receptor A3 [7]): 85.1 nM

Cn1nc(NC(=O)Nc2ccccc2)c2ccnc(NC3CCCCC3)c21
IC50 (Adenosine receptor A3 [4]): 4.27 nM
Kd (Adenosine receptor A3 [5]): 302 nM
Ki (Adenosine receptor A3 [6]): 64.6 nM
IC50 (Adenosine receptor A1 [1]): 1.41 nM
Ki (Adenosine receptor A1 [2]): 1000 nM

O=C(CNc1ccccc1)Nc1n[nH]c2cnc(Nc3ccccc3)cc12
IC50 (Adenosine receptor A3 [4]): 3.02 nM
Kd (Adenosine receptor A3 [5]): 490 nM
Ki (Adenosine receptor A3 [6]): 0.115 nM
IC50 (Adenosine receptor A1 [1]): 6.92 nM
Ki (Adenosine receptor A1 [2]): 363 nM
Kd (Adenosine receptor A3 [7]): 355 nM
Kd (Adenosine receptor A1 [3]): 282 nM

Cn1nc(NC(=O)c2ccccc2)c2cc(Nc3ccccc3)ncc21
IC50 (Adenosine receptor A3 [4]): 6.76 nM
Kd (Adenosine receptor A3 [5]): 170 nM
Ki (Adenosine receptor A3 [6]): 234 nM
IC50 (Adenosine receptor A1 [1]): 5.01 nM
Ki (Adenosine receptor A1 [2]): > 955 nM
Kd (Adenosine receptor A1 [3]): 851 nM

COc1cc(Nc2nc(C#N)cc3c(-c4ccccc4)n[nH]c23)cc(OC)c1OC
IC50 (Adenosine receptor A1 [1]): 200 nM
Ki (Adenosine receptor A1 [2]): 4.37 nM
Kd (Adenosine receptor A1 [3]): 1.74 nM
Kd (Adenosine receptor A1 [21]): 13.5 nM
Kd (Adenosine receptor A1 [16]; read-out: pKd (converted)): 23.4 nM
Kd (Adenosine receptor A1 [17]; read-out: pKd (converted)): 9.33 nM
Kd (Adenosine receptor A1 [18]; read-out: pKd (converted)): 7.94 nM
Kd (Adenosine receptor A1 [20]): 3.63 nM

COc1cc(Nc2nc(Cl)cc3c(C(C)C)n[nH]c23)cc(OC)c1OC
IC50 (Adenosine receptor A3 [4]): 2.82 nM
Kd (Adenosine receptor A3 [5]): 550 nM
Ki (Adenosine receptor A3 [6]): 631 nM
IC50 (Adenosine receptor A1 [1]): 5.01 nM
Ki (Adenosine receptor A1 [2]): 288 nM
Kd (Adenosine receptor A1 [3]): 282 nM

COc1cc(Nc2nccc3c(-c4ccccc4)n[nH]c23)cc(OC)c1OC
IC50 (Adenosine receptor A3 [4]): 5.13 nM
Kd (Adenosine receptor A3 [5]): 251 nM
Ki (Adenosine receptor A3 [6]): 100 nM
Kd (Adenosine receptor A3 [7]): 74.1 nM

COc1cc(Nc2nc(CNCc3ccccc3)cc3c(-c4ccccc4)n[nH]c23)cc(OC)c1OC
IC50 (Adenosine receptor A3 [4]): 7.24 nM
Kd (Adenosine receptor A3 [5]): 158 nM
Ki (Adenosine receptor A3 [6]): 85.1 nM
IC50 (Adenosine receptor A1 [1]): 3.89 nM
Ki (Adenosine receptor A1 [2]): 204 nM
Kd (Adenosine receptor A3 [7]): 186 nM
Kd (Adenosine receptor A1 [3]): 427 nM

COc1cccc(Cn2c(=O)n(CC3CC3)c(=O)c3c2nc2cc(OC)ccn23)c1
K [22]: 8.17 10^6/M/min
K [23]: 0.0065 min⁻¹
TIME [24]: 2.8 h
Kd (Adenosine receptor A3 [25]): 9.11 nM

COc1cc(Nc2nc(C#N)cc3cn[nH]c23)cc(OC)c1OC
IC50 (Adenosine receptor A1 [1]): 10.2 nM
Ki (Adenosine receptor A1 [2]): 229 nM
Kd (Adenosine receptor A1 [3]): 102 nM

COc1cc(Nc2nc(C#N)cc3c(C(C)C)n[nH]c23)cc(OC)c1OC
IC50 (Adenosine receptor A3 [4]): 3.8 nM
Kd (Adenosine receptor A3 [5]): 355 nM
Ki (Adenosine receptor A3 [6]): 603 nM

CCCn1c(=O)[nH]c(=O)c2[nH]c(C3CCCC3)nc21
Kd (Adenosine receptor A1 [26]): 1.5 nM
